The record followed here is PMC5947712, “High‐Throughput Kinetic Analysis for Target‐Directed Covalent Ligand Discovery” (Angewandte Chemie (International Ed. in English), 2018).

The structures appear in SMILES notation.

The target of one assay is T1, Cdk2 (Homo sapiens, UniProt P24941).
T1 construct: endogenous in cells; host or cells: HeLa
Briefly: In-cell target engagement: CuAAC biotin tagging, Neutravidin pulldown, anti-Cdk2 western blot. It is filed as cell-based. As to conditions: HeLa cells, 6 hours treatment. The protocol:
(§1) To evaluate whether this in vitro activity would translate into in‐cell target engagement, acrylamide 3 (REFCdk2(WT)=5.6, k GSH=0.033 h^−1, k Cdk2(WT)=0.185 h^−1) was synthesized as a target engagement probe, containing an alkyne handle for bio‐orthogonal ligation. HeLa cells were treated with probe 3 and protein lysates subjected to copper(I) catalyzed azide–alkyne cycloaddition (CuAAC)30 to affect biotin conjugation.
(§2) Figure 7 HeLa cells were treated with 3 for 6 hours. After tagging with biotin‐azide, Neutavidin pulldown was performed. Western blot analysis (anti‐Cdk2 and Cdk1) was performed before (Lysate) and after pulldown (PD).
(§3) 100Rfold! dilution! gave! the! optimum! seed! concentration! for! subsequent! crystallization.!Ligand" conjugated" Cdk2:!Crystallisation!
(§4) was! performed! by! mixing! 1! µL! of! labelled! Cdk2! solution! (8! mg! mLR1,! 100! mM! phosphate! buffer)! with! 0.5! µL! of! reservoir! soluR
(§5) tion! (Jeffamine! EDR2003! concentration! range! 18!R!30%! w/v,! 100! mM! HEPES,! pH! range! 7.5!–!8.5)! and! 0.5! µL! diluted! apoR
(§6) Cdk2(WT)!microseed!stock.!For!labelled!Cdk2(WT),!crystals!appeared!within!2–3!days!and!grew!for!another!10–14!days.!
(§7) L.,Molecular,dynamics,simulation, […]
(§8) maps!were!calculated!using!FFT[20]!and!figures!were!prepared!using!PyMol!(Schrödinger).! […]
(§9) Phosphorylation! of! […] Cdk2! during! gel! electrophoresis! and! the! reaction! was! monitored! by! […]
A general note: Immunoblotting shows a protein as a band on a membrane.

A further assay concerns the target Cdk2(WT) (Homo sapiens, UniProt P24941). Briefly: qIT thiol consumption assay with Cdk2(WT) (Cys177). It counts as binding. Also on record: made in house; host or cells: E. coli Tuner(DE3).
Assay [1] is described as follows: qIT (quantitative irreversible tethering) thiol consumption assay with glutathione. The settings on record: compound 0.5 mM, glutathione 5 μM, TCEP-agarose 2 % w/v.
Description: To measure the kinetics of electrophile‐thiol conjugation we developed quantitative irreversible tethering (qIT), a technique which employs fluorogenic thiol quantification (FTQ) in a high‐throughput thiol consumption assay (Figure 1 a). […] We solved this problem using an immobilized reducing agent (TCEP‐agarose, 2 % w/v), allowing facile separation by centrifugation before conducting the FTQ step (Figure 1 b).
The target thiol (5 μM) is reacted with electrophilic fragments (0.5 mM) under pseudo‐first‐order conditions in the presence of TCEP‐agarose (2 % w/v). Reaction progress is followed by discrete measurements of residual target thiol concentration using the fluorogenic probe CPM and rate constants are derived from exponential regression analysis. b) TCEP‐agarose prevents aerobic thiol oxidation. Glutathione solutions were stored ±TCEP‐agarose (2 % w/v).
Electrophiles were individually reacted with glutathione under pseudo‐first‐order conditions in the presence of TCEP‐agarose. […] Fluorescence measurements were normalized against a DMSO control and exponential regressions used to determine rate constants.
ReactionBplate" setup:!Each! well! of! a! 96Rwell! PCR! plate! was! charged! with! 60–100! µL! of! target! thiol! (GSH! or! protein,! 10! µM)!
and! 4%! w/v! TCEPRagarose! beads! in! 100! mM! phosphate! buffer! (pH! 7.5! or! 8)! and! cooled! to! 4! ˚C.! Reactions! were! started! by!
addition! of! an! equal! volume! of! preRcooled! electrophile! solution! (1! mM,! 2%! DMSO)! in! 0.1! M! phosphate! buffer! (final! concentraR
tion:! thiol! =! 5! µM,! electrophile! =! 0.5! mM,! 2%! w/v! TCEPRagarose! beads),! with! a! minimum! of! 4! wells! per! plate! used! as!
DMSO/thiol! only! controls.! After! mixing,! TCEPRagarose! was! pelleted! by! centrifugation! (1,300! rpm,! 1! min)! and! the! plate! incuR
bated!at!4!˚C.,CPM"Quench:! At! a! series! of! time! points!
In a further assay the target is T2, Cdk1 (Homo sapiens, UniProt P06493).
T2 construct: endogenous in cells; host or cells: HeLa
T2 sequence (P06493 whole entry): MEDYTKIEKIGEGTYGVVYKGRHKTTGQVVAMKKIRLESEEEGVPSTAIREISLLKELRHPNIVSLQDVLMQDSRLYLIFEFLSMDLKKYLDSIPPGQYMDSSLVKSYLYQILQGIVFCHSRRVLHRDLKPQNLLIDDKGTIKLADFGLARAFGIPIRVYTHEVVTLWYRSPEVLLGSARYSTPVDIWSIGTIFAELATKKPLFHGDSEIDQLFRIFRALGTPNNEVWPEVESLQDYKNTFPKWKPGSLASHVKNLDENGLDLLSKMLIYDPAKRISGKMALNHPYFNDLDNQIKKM
As to the kind of experiment: In-cell target engagement: CuAAC biotin tagging, Neutravidin pulldown, anti-Cdk1 western blot. It is filed as cell-based. As to conditions: HeLa cells, 6 hours treatment. The protocol: as §1, §2, §3, §4, §5, §6, §7, §8, §9

Regarding `C#CCNC(=O)N1CCN(C(=O)C=C)c2ccccc21` [Acrylamide 3], the “enrichment of Cdk2 after pull-down (western blot)” value on Cdk2 is “concentration‐dependent enrichment”. For the same compound, the “k Cdk2(WT) (pseudo-first-order rate constant)” value on Cdk2(WT) (compound 0.5 mM, Cdk2(WT) 5 μM, TCEP-agarose 2 % w/v) turned out to be 0.185 h⁻¹. The “REF Cdk2(WT) (rate enhancement factor = k protein/k GSH)” value on Cdk2(WT) (k Cdk2(WT)/k GSH) came out at 5.6. Besides, the “k GSH (pseudo-first-order rate constant)” value in assay [1] was 0.033 h⁻¹. In addition, the “isolation of Cdk1 after pull-down (western blot)” value on Cdk1 is recorded as “not isolated”.
